Structures are written as SMILES. pEC50, pIC50: −log10 of the molar value. Where two headings read alike, the source gives them in different places.

We go through 2 molecules from US20260116868A1 (Arcus Biosciences, Inc., priority 2023, published 2026).

Assay [1] concerns the target T1, Cbl-b (Homo sapiens, UniProt Q13191).
T1 construct: biotin (biotinylated protein)
In words: Cbl-b probe displacement HTRF binding assay. The note with it: 0.4 nM Cbl-b, 150 nM BODIPY probe. In outline:
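Binding IC50 from four-parameter fit of HTRF signal loss, normalised to DMSO (0%) and no-protein (100%) wells. Biotinylated Cbl-b 0.4 nM was preincubated 60 min with compound (20-point 1:2 dilution) before 15 min with 150 nM BODIPY probe; Tb-streptavidin detection.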

The test system of assay [2] is Jurkat cells. As to the kind of experiment: IL-2 secretion assay in Jurkat cells activated with CD3/CD28 T Cell Activator. Format: cell-based. The conditions noted are these: Homo sapiens, 24 h, read-out: IL-2 Secretion (EC50). In outline: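 Jurkat cells in Opti-MEM were preincubated 1 h at 37° C with compound (final 10 μM to 300 pM, 16-point 1:2 dilution), then activated with human CD3/CD28 T Cell Activator for 24 h at 37° C. Supernatant IL-2 measured by AlphaLISA; EC50 from 4-parameter logistic fit.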

T1 sequence (Q13191 whole entry, species assumed): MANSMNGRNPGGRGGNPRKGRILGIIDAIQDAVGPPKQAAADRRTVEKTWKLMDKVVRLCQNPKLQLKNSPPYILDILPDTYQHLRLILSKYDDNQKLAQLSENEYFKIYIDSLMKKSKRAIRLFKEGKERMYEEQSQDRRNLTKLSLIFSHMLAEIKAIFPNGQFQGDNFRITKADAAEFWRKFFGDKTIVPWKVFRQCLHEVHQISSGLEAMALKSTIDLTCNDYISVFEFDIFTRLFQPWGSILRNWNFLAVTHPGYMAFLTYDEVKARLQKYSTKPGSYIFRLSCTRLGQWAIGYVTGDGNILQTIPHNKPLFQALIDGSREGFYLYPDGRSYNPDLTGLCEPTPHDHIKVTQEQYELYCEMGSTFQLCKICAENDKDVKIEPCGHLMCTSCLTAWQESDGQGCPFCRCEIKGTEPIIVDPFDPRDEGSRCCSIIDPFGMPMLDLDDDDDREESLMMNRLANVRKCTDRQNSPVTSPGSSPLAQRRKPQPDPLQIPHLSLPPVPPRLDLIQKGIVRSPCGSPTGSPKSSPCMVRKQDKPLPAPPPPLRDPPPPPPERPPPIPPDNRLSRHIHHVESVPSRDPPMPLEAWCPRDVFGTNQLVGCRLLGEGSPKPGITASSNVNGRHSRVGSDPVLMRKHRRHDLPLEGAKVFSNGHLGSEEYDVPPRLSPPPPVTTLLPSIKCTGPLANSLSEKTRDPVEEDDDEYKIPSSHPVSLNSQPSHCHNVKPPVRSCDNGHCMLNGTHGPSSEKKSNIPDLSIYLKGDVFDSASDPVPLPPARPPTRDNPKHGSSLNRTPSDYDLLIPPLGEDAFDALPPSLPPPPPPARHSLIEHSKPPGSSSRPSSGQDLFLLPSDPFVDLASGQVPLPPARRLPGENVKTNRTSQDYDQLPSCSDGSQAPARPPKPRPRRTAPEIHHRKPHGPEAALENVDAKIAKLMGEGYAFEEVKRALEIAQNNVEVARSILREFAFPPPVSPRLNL

As for `CC(C)CNCc1cc(C(=O)Nc2cc(-c3c(F)cc(Cl)cc3C(=O)N3CC(F)(F)C3)cc(C3CC3)n2)c(=O)n(C2CC2)c1` [Example 144, N-(4-{4-chloro-2-[(3,3-difluoro-1-azetidinyl)carbonyl]-6-fluorophenyl}-6-cyclopropyl-2-pyridyl)-1-cyclopropyl-5-[(isobutylamino)methyl]-2-oxo-1,2-dihydronicotinamide], in assay [1], the negative-log IC50 (pIC50) (commonly −log10 of the IC50, conventionally taken in molar units) was over 7.00. For the same molecule, the negative-log EC50 (pEC50) – broadly, the EC50 on a negative log10 scale, so that one unit is a factor of ten – in assay [2] (Jurkat) is over 7.00.
`CO[C@H]1CCC[C@@H]1NCc1cc(C(=O)Nc2cc(-c3ccc(C#N)cc3C(=O)N3CC(F)(F)C3)cc(C3CC3)n2)c(=O)n(CC(F)(F)F)c1` [Example 154, N-[4-[4-cyano-2-(3,3-difluoroazetidine-1-carbonyl)phenyl]-6-cyclopropylpyridin-2-yl]-5-[[[(1S,2S)-2-methoxycyclopentyl]amino]methyl]-2-oxo-1-(2,2,2-trifluoroethyl)pyridine-3-carboxamide] gave a pIC50 in assay [1] of over 7.00. In assay [2] (Jurkat cells, CD3/CD28 T Cell Activator, IL-2 AlphaLISA), the pEC50 is over 7.00.
